Test results reported in patent publication US20080234262A1 (Wyeth, priority 2007, published 2008).
pIC50: −log10 of the molar value. Where two headings read alike, the source gives them in different places.

How the values were obtained:
[1] = tested on: breast line MDA468; experiment: In vitro cell culture growth assay (MTS), MDA468; format: cell-based, human; settings: MDA468 cells, three days after drug treatment
Outline: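 MDA468 or LNCap cells received inhibitors one day after plating and were grown for three days. Viable cell density read by MTS conversion, absorbance 490 nm, expressed as percent of control growth versus vehicle-treated cells on the same plate.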

[2] = target: PI3K (Homo sapiens, UniProt P42336); experiment: Fluorescence polarization assay for PI3K; format: biochemical;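 further: PI3K kinase reaction on PIP2 with ATP, 30-60 min, product sensed by GST-GRP with red probe in fluorescence polarization (mP), controls without enzyme and at zero time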
[3] = tested on: prostate line LNCap; experiment: In vitro cell culture growth assay (MTS), LNCap; format: cell-based, human; settings: LNCap cells, three days after drug treatment

Sequence of PI3K (P42336 whole entry): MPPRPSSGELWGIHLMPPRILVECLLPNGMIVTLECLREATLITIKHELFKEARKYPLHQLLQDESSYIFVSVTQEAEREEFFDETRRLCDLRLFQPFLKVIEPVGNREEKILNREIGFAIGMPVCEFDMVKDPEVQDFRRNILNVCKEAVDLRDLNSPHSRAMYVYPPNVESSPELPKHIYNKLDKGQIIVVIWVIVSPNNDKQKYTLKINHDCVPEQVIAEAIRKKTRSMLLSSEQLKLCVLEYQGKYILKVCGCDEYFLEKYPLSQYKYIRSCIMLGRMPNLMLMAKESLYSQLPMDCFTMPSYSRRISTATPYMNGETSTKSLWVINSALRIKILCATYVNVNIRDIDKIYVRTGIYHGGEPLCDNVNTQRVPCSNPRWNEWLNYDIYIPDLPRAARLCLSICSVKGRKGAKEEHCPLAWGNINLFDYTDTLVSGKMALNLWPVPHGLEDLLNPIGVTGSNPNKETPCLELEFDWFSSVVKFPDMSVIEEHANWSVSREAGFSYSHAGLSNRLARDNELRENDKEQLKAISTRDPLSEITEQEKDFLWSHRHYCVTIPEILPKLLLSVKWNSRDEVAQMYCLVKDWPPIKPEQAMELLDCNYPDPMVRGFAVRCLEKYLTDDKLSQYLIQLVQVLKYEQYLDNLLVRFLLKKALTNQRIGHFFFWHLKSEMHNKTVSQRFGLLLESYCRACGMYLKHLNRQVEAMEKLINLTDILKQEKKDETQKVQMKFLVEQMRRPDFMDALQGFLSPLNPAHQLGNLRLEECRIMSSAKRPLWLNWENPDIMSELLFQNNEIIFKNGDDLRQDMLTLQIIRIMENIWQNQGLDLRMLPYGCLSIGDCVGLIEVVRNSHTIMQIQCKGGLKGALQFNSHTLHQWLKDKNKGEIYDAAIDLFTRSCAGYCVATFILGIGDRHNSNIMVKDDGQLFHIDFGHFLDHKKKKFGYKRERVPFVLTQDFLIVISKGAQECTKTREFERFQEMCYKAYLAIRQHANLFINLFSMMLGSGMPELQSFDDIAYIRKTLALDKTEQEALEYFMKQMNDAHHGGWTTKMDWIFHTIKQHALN
Sequence of PI3K (P27986 whole entry partner): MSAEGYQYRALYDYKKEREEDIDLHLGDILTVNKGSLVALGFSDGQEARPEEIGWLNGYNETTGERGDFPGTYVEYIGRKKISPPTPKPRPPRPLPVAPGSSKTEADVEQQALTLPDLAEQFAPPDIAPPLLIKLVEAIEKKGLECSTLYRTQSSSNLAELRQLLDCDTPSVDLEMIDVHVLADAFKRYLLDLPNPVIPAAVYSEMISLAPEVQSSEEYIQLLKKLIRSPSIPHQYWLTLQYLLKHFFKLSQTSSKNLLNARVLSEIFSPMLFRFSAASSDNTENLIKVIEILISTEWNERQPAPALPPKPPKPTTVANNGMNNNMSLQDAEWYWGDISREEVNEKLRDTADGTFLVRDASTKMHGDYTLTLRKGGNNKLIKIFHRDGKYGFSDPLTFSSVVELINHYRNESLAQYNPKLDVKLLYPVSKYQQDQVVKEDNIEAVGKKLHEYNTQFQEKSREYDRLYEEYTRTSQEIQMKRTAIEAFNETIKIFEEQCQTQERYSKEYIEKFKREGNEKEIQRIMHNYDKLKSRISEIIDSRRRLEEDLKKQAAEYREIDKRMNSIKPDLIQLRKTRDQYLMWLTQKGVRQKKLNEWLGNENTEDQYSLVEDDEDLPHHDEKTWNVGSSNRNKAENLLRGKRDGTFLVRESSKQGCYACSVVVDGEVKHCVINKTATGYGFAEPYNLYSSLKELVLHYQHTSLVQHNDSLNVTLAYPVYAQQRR

Row | Structure (SMILES) | pIC50 ([2]; PI3Kα, read-out: PI3Kα IC50) | pIC50 ([3]; Homo sapiens, LNCaP, 72 h) | pIC50 [3] | pIC50 ([1]; Homo sapiens, 72 h) | pIC50 [1] | pIC50 ([2]; PI3Kα IC50, PI3Kα) | pIC50 ([3]; Homo sapiens, 72 h)
1 | CN(C)CC=CC(=O)N1CCC(n2ncc3c(N4CCOCC4)nc(-c4ccc5[nH]ccc5c4)nc32)CC1 [Compound 234, 4-{4-[6-(1H-indol-5-yl)-4-morpholin-4-yl-1H-pyrazolo[3,4-d]pyrimidin-1-yl]piperidin-1-yl}-N,N-dimethyl-4-oxobut-2-en-1-amine] | 6.32 | 6.00 | – | 5.70 | – | – | –
2 | CC(=O)Nc1ccc(-c2nc(N3CCOCC3)c3cn[nH]c3n2)cc1 [Compound 233, N-[4-(4-morpholin-4-yl-1H-pyrazolo[3,4-d]pyrimidin-6-yl)phenyl]acetamide] | 6.35 | 5.43 | – | 5.07 | – | – | –
3 | c1cc2cc(-c3nc(N4CCOCC4)c4cn[nH]c4n3)ccc2[nH]1 [Compound 248, 6-(1H-indol-5-yl)-4-morpholin-4-yl-1H-pyrazolo[3,4-d]pyrimidine] | 6.03 | 5.46 | – | 5.05 | – | – | –
4 | COC(=O)N1CCC(n2ncc3c(N4CCOCC4)nc(-c4ccc(NC(=O)Oc5ccc(Cl)cc5)cc4)nc32)CC1 [Compound 950, methyl 4-[6-(4-{[(4-chlorophenoxy)carbonyl]amino}phenyl)-4-morpholin-4-yl-1H-pyrazolo[3,4-d]pyrimidin-1-yl]piperidine-1-carboxylate] | – | – | – | 4.77 | – | 5.05 | 5.31
5 | O=C(NCCF)Nc1ccc(-c2nc(N3CCOCC3)c3cnn(C4CCNCC4)c3n2)cc1 [Compound 774, 1-(2-fluoroethyl)-3-[4-(4-morpholin-4-yl-1-piperidin-4-yl-1H-pyrazolo[3,4-d]pyrimidin-6-yl)phenyl]urea] | 6.36 | 5.64 | – | 5.98 | – | – | –
6 | CN1CCC(n2ncc3c(N4CCOCC4)nc(-c4ccc5[nH]ccc5c4)nc32)CC1 [Compound 124] | 6.07 | 6.08 | – | 5.77 | – | – | –
7 | COC(=O)N1CCC(n2ncc3c(N4CCOCC4)nc(-c4ccc(NC(=O)OCCF)cc4)nc32)CC1 [Compound 865, methyl 4-[6-(4-{[(2-fluoroethoxy)carbonyl]amino}phenyl)-4-morpholin-4-yl-1H-pyrazolo[3,4-d]pyrimidin-1-yl]piperidine-1-carboxylate] | 5.53 | 6.17 | – | 5.39 | – | – | –
8 | c1cc2cc(-c3nc(N4CCOCC4)c4cnn(CCN5CCCCC5)c4n3)ccc2[nH]1 [Compound 125] | 5.01 | 5.36 | – | 5.14 | – | – | –
9 | O=C(Nc1ccc(-c2nc(N3CCOCC3)c3cnn(C4CCN(CC(F)(F)F)CC4)c3n2)cc1)OCCO [Compound 923, 2-hydroxyethyl (4-{4-morpholin-4-yl-1-[1-(2,2,2-trifluoroethyl)piperidin-4-yl]-1H-pyrazolo[3,4-d]pyrimidin-6-yl}phenyl)carbamate] | 6.13 | 6.96 | – | 5.92 | – | – | –
10 | O=C(Nc1ccncc1)Nc1ccc(-c2nc(N3CCOCC3)c3cnn(C4CCN(C(=O)c5ccccc5)CC4)c3n2)cc1 [Example 384, 1-{4-[1-(1-benzoylpiperidin-4-yl)-4-morpholin-4-yl-1H-pyrazolo[3,4-d]pyrimidin-6-yl]phenyl}-3-pyridin-4-ylurea] | 7.72 | 7.38 | – | 7.00 | – | – | –
11 | O=C(Cc1ccccc1)N1CCC(n2ncc3c(N4CCOCC4)nc(-c4ccc5[nH]ccc5c4)nc32)CC1 [Compound 242, 6-(1H-indol-5-yl)-4-morpholin-4-yl-1-[1-(phenylacetyl)piperidin-4-yl]-1H-pyrazolo[3,4-d]pyrimidine] | 6.16 | 6.15 | – | 5.52 | – | – | –
12 | c1ccc(-n2ncc3c(N4CCOCC4)nc(-c4ccc5[nH]ncc5c4)nc32)cc1 [Example 432, 6-(1H-indazol-5-yl)-4-morpholin-4-yl-1-phenyl-1H-pyrazolo[3,4-d]pyrimidine] | 6.36 | 4.70 | – | 4.22 | – | – | –
13 | O=S(=O)(c1ccccc1)N1CCC(n2ncc3c(N4CCOCC4)nc(-c4ccc5[nH]ccc5c4)nc32)CC1 [Compound 92] | 5.33 | 5.10 | – | 5.60 | – | – | –
14 | CCOC(=O)N1CCC(n2ncc3c(N4CCOC[C@H]4C)nc(-c4ccc(NC(=O)NC)cc4)nc32)CC1 [Compound 888, ethyl 4-(6-{4-[(methylcarbamoyl)amino]phenyl}-4-[(3R)-3-methylmorpholin-4-yl]-1H-pyrazolo[3,4-d]pyrimidin-1-yl)piperidine-1-carboxylate] | 5.70 | 8.00 | – | 6.66 | – | – | –
15 | O=C(NCCO)Nc1ccc(-c2nc(N3CCOCC3)c3cnn(CC(F)(F)F)c3n2)cc1 [Compound 791, 1-(2-hydroxyethyl)-3-{4-[4-morpholin-4-yl-1-(2,2,2-trifluoroethyl)-1H-pyrazolo[3,4-d]pyrimidin-6-yl]phenyl}urea] | 6.87 | 6.66 | – | 6.59 | – | – | –

Further lines, with some results ahead:

Row | pIC50 ([2]; PI3Kα, read-out: PI3Kα IC50) | pIC50 ([3]; Homo sapiens, LNCaP, 72 h) | pIC50 [3] | Structure (SMILES) | pIC50 ([1]; Homo sapiens, 72 h) | pIC50 [1] | pIC50 ([2]; PI3Kα IC50, PI3Kα) | pIC50 ([3]; Homo sapiens, 72 h)
16 | 6.23 | – | 5.66 | COC(=NC#N)Nc1ccc(-c2nc(N3CCOCC3)c3cnn(C4CCN(Cc5cccnc5)CC4)c3n2)cc1 [Compound 654, methyl N′-cyano-N-(4-{4-morpholin-4-yl-1-[1-(pyridin-3-ylmethyl)piperidin-4-yl]-1H-pyrazolo[3,4-d]pyrimidin-6-yl}phenyl)imidocarbamate] | – | 5.89 | – | –
17 | 6.21 | 6.13 | – | COC(=O)Nc1ccc(-c2nc(N3CCOCC3)c3cnn(C4CCN(Cc5ccc(Cl)nc5)CC4)c3n2)cc1 [Example 454, methyl [4-(1-{1-[(6-chloropyridin-3-yl)methyl]piperidin-4-yl}-4-morpholin-4-yl-1H-pyrazolo[3,4-d]pyrimidin-6-yl)phenyl]carbamate] | 5.70 | – | – | –
18 | 7.37 | 7.15 | – | CNC(=O)Nc1ccc(-c2nc(N3CCOCC3)c3cnn(C4CCN(Cc5cccc(OC)c5)CC4)c3n2)cc1 [Example 400, 1-(4-{1-[1-(3-methoxybenzyl)piperidin-4-yl]-4-morpholin-4-yl-1H-pyrazolo[3,4-d]pyrimidin-6-yl}phenyl)-3-methylurea] | 6.30 | – | – | –
19 | 6.97 | 6.70 | – | Nc1ccc(-c2nc(N3CCOCC3)c3cnn(C4CCN(Cc5cccnc5)CC4)c3n2)cn1 [Example 210, 5-{4-morpholin-4-yl-1-[1-(pyridin-3-ylmethyl)piperidin-4-yl]-1H-pyrazolo[3,4-d]pyrimidin-6-yl}pyridin-2-amine] | 5.96 | – | – | –
20 | 6.83 | – | 5.66 | CNC(=O)Nc1ccc(-c2nc(N3CCOCC3)c3cnn(C4CCN(C(=O)NC)CC4)c3n2)cc1 [Compound 722, N-methyl-4-(6-{4-[(methylcarbamoyl)amino]phenyl}-4-morpholin-4-yl-1H-pyrazolo[3,4-d]pyrimidin-1-yl)piperidine-1-carboxamide] | – | 5.74 | – | –
21 | 7.12 | 7.46 | – | CNC(=O)Nc1ccc(-c2nc(N3CCOCC3)c3cnn(C4CCN(C(=O)c5cccc(OC)c5)CC4)c3n2)cc1 [Example 364, 1-(4-{1-[1-(3-methoxybenzoyl)piperidin-4-yl]-4-morpholin-4-yl-1H-pyrazolo[3,4-d]pyrimidin-6-yl}phenyl)-3-methylurea] | 6.52 | – | – | –
22 | 7.11 | 6.40 | – | CNC(=O)Nc1ccc(-c2nc(N3CCOCC3)c3cnn(C4CCN(S(C)(=O)=O)CC4)c3n2)cc1 [Compound 759, 1-methyl-3-(4-{1-[1-(methylsulfonyl)piperidin-4-yl]-4-morpholin-4-yl-1H-pyrazolo[3,4-d]pyrimidin-6-yl}phenyl)urea] | 6.32 | – | – | –
23 | 7.08 | – | 6.96 | CNC(=O)Nc1ccc(-c2nc(N3CCOCC3)c3cnn(C4CCN(C(=O)c5cccc(C(C)=O)c5)CC4)c3n2)cc1 [Compound 667, 1-(4-{1-[1-(3-acetylbenzoyl)piperidin-4-yl]-4-morpholin-4-yl-1H-pyrazolo[3,4-d]pyrimidin-6-yl}phenyl)-3-methylurea] | – | 6.82 | – | –
24 | 7.48 | > 7.57 | – | CNC(=O)Nc1ccc(-c2nc(N3CCOCC3)c3cnn(C4CCN(Cc5ccc(OC)nc5)CC4)c3n2)cc1 [Compound 574, 1-[4-(1-{1-[(6-methoxypyridin-3-yl)methyl]piperidin-4-yl}-4-morpholin-4-yl-1H-pyrazolo[3,4-d]pyrimidin-6-yl)phenyl]-3-methylurea] | 6.15 | – | – | –
25 | 5.67 | 6.00 | – | O=C(NCCc1ccccc1)Nc1ccc(-c2nc(N3CCOCC3)c3cnn(C4CCN(Cc5ccccc5)CC4)c3n2)cc1 [Compound 259, 1-{4-[1-(1-benzylpiperidin-4-yl)-4-morpholin-4-yl-1H-pyrazolo[3,4-d]pyrimidin-6-yl]phenyl}-3-(2-phenylethyl)urea] | 4.70 | – | – | –
26 | 6.70 | 7.00 | – | O=C(NO)Nc1ccc(-c2nc(N3CCOCC3)c3cnn(C4CCN(Cc5ccccc5)CC4)c3n2)cc1 [Compound 310, 1-{4-[1-(1-benzylpiperidin-4-yl)-4-morpholin-4-yl-1H-pyrazolo[3,4-d]pyrimidin-6-yl]phenyl}-3-hydroxyurea] | 5.96 | – | – | –
27 | 6.11 | 5.48 | – | O=C(NCCF)Nc1ccc(-c2nc(N3CCOCC3)c3cnn(C4CCN(CCCCO)CC4)c3n2)cc1 [Compound 747, 1-(2-fluoroethyl)-3-(4-{1-[1-(4-hydroxybutyl)piperidin-4-yl]-4-morpholin-4-yl-1H-pyrazolo[3,4-d]pyrimidin-6-yl}phenyl)urea] | 5.18 | – | – | –
28 | 7.46 | 7.42 | – | CNC(=O)Nc1ccc(-c2nc(N3CCOCC3)c3cnn(C4CCN(Cc5ccccc5Cl)CC4)c3n2)cc1 [Example 396, 1-(4-{1-[1-(2-chlorobenzyl)piperidin-4-yl]-4-morpholin-4-yl-1H-pyrazolo[3,4-d]pyrimidin-6-yl}phenyl)-3-methylurea] | 6.70 | – | – | –
